Measured values reported in patent US10492491B2, “Insecticide composition including a synergistic agent” (priority 2015, dated 2019).
Where two headings read alike, the source gives them in different places.

How the values were obtained:
Format in all cases: cell-based, Periplaneta americana
[1] = system: cockroach Dorsal Unpaired Median (DUM) neurons; details: for origin of the intracellular calcium concentration rise: with caffeine, omegaconotoxin, pirenzepine
[2] = system: cockroach Dorsal Unpaired Median (DUM) neurons; test: Whole-cell patch-clamp, current-clamp: DUM neuron spontaneous electrical activity; details: IR3535 at 10^-8 M; whole-cell configuration
Description: (§1) Experiments were carried out on cockroach Dorsal Unpaired Median (DUM) neurons. Cockroach neuronal preparations are commonly used as biomedical models for vertebrates and invertebrates and DUM neurons are, furthermore, electrophysiologically and pharmacologically well characterized since most of the biophysical and pharmacological properties of ionic currents and receptors underlying and modulating their spontaneous action potentials have been established by using the well-known patch-clamp technique.
Adult male cockroaches, Periplaneta americana (see FIG. 1), are taken from our laboratory colonies, which are maintained under standard conditions (29° C., photoperiod of 12 h light/12 h dark). Animals are immobilized dorsal-side up on a dissection dish. The dorsal cuticle, gut and some dorso-longitudinal muscles are removed to allow access to the ventral nerve cord. The abdominal nerve cord and its terminal abdominal ganglion (TAG), carefully dissected under a binocular microscope, are placed in normal saline. Animal care and handling procedures are in accordance with French institutional and national health guidelines. […]
Electrical activity and neonicotinoïd-induced inward currents are recorded using the patch clamp technique in the whole-cell recording configuration under current-clamp and voltage-clamp mode, respectively. […] Signals are recorded with an Axopatch 200A amplifier. […]

[3] = system: cockroach Dorsal Unpaired Median (DUM) neurons; test: Whole-cell patch-clamp, voltage-clamp: neonicotinoïd-induced inward currents; details: for inward current amplitude after pretreatment with low concentration of IR3535 (conclusion): DUM neurons pretreated with low concentration of IR3535; for induced inward current, insecticide alone (conclusion): act like agonists
Description: as §1
Adult male cockroaches, Periplaneta americana (see FIG. 1), are taken from our laboratory colonies, which are maintained under standard conditions (29° C., photoperiod of 12 h light/12 h dark). Animals are immobilized dorsal-side up on a dissection dish. The dorsal cuticle, gut and some dorso-longitudinal muscles are removed to allow access to the ventral nerve cord. The abdominal nerve cord and its terminal abdominal ganglion (TAG), carefully dissected under a binocular microscope, are placed in normal saline. Animal care and handling procedures are in accordance with French institutional and national health guidelines.
The ventral nerve cord and its terminal abdominal ganglion (TAG) are carefully dissected under a binocular microscope and placed in normal cockroach saline containing (in mM) 200 NaCl, 3.1 KCl, 5 CaCl2, 4 MgCl2, 50 sucrose, and 10 […] (HEPES); pH was adjusted to 7.4 with NaOH. Isolation of adult DUM neuron cell bodies are performed under sterile conditions using enzymatic digestion and mechanical dissociation of the median parts of the TAG as previously described in Lapied et al. (Ionic species involved in the electrical activity of single adult aminergic neurones isolated from sixth abdominal ganglion of cockroach Periplaneta americana J Exp Biol 144:535-49, 1989). The isolated neuron cell bodies are used for recordings 24 h after dissociation.
Electrical activity and neonicotinoïd-induced inward currents are recorded using the patch clamp technique in the whole-cell recording configuration under current-clamp and voltage-clamp mode, respectively. Patch-clamp electrodes are pulled from borosilicate glass capillary tubes (GC150T-10) using a P-97 model puller. Patch pipettes have resistances ranging from 1 to 1.2 MΩ when filled with internal pipette solution. The liquid junction potential between extracellular and intracellular solutions is always corrected before the formation of a giga Ohm seal (>3 GΩ). Signals are recorded with an Axopatch 200A amplifier. […] Under voltage-clamp conditions, DUM neuron somata are voltage-clamped at a steady state holding potential of −50 mV to measure the effects of thiamethoxam or thiacloprid applied alone and after pretreatment with IR3535® (10^−8 M). Experiments are carried out at room temperature.

[4] = thiamethoxam 10^-6 M, pretreated with IR3535 10^-8 M

CCN(CC)C(=O)c1cccc(C)c1 [DEET, N,N-diethyl-3-methylbenzamide]
ratio of emitted fluorescence (340 nm/380 nm), maximum value ([1]; DEET at 10^-7 M (maximum)): 0.7
ratio of emitted fluorescence (340 nm/380 nm) ([1]; DEET between 3.10^-8 M and 3.10^-7 M): above 0.6
effect on intracellular calcium concentration, low concentration range ([1]; DEET from 10^-9 M to 10^-7 M): elevation of the intracellular calcium concentration
effect on intracellular calcium concentration, higher concentrations ([1]; DEET higher than 10^-7 M): important decrease of the intracellular calcium concentration
concentration giving the maximum elevation of intracellular calcium concentration ([1]; DEET low concentration range): 10^−7 M

CCCCN(CCC(=O)OCC)C(C)=O [IR3535®, 3-[N-Butyl-N-acetyl]-aminopropionic acid, ethyl ester]
lower concentration which produces a significant elevation of intracellular calcium concentration ([1]; DUM neurons): 10^−8 M
origin of the intracellular calcium concentration rise ([1]; IR3535 at 10^-8 M): extracellular calcium through plasma membrane voltage-dependent calcium channels via M1/M3 mAChR sub-type modulation
effect on intracellular calcium concentration, zone I ([1]; IR3535 between 3.10^-9 M and 3.10^-8 M, bath application): transient increase of intracellular calcium concentration
effect on intracellular calcium concentration, zone II ([1]; IR3535 from 10^-7 M to 3.10^-6 M): additional elevation of intracellular calcium concentration
origin of the intracellular calcium concentration rise ([1]; higher concentrations of IR3535 (10^-5 M)): both extracellular calcium and calcium released from internal stores
concentration giving the maximum of the zone I intracellular calcium increase ([1]; zone I (3.10^-9 M to 3.10^-8 M)): 10^−8 M
concentration giving the maximum effect on intracellular calcium, zone III ([1]; zone III, very high concentration): 3.10^−5 M
effect on membrane potential [2]: significant membrane depolarization
effect on spontaneous action potential discharge frequency [2]: increase of the spontaneous action potential discharge frequency

N#C/N=C1\SCCN1Cc1ccc(Cl)nc1 [thiacloprid]
concentration giving the maximum increase of inward current amplitude after IR3535 pretreatment ([3]; DUM neuron pretreated with IR3535 10^-8 M): 10^−6 M
inward current amplitude after pretreatment with low concentration of IR3535 (conclusion) [3]: more important
induced inward current, insecticide alone (conclusion) ([3]; alone): inward current with a small amplitude
concentration giving the maximum effect on inward current amplitude, applied alone ([3]; alone, holding potential -50 mV): 10^−3 M
effect on inward current amplitude, applied alone ([3]; bath application alone, holding potential -50 mV): dose-dependent increase of the inward current amplitude
effect on inward current amplitude at higher concentration after IR3535 pretreatment ([3]; thiacloprid 10^-5 M, pretreated with IR3535 10^-8 M): important decrease of the current amplitude

CN1COCN(Cc2cnc(Cl)s2)/C1=N\[N+](=O)[O-] [thiamethoxam]
induced inward current, applied alone ([3]; 10^-6 M alone, holding potential -50 mV, n=3-4): inward current with small amplitudes
inward current amplitude after pretreatment with low concentration of IR3535 (conclusion) [3]: more important
induced inward current, insecticide alone (conclusion) ([3]; alone): inward current with a small amplitude
effect of IR3535 pretreatment on induced inward current amplitude [3, 4]: important increase of the thiamethoxam-induced inward current amplitude
mean current amplitude after IR3535 pretreatment relative to applied alone [3, 4]: about 6 fold
